According to the Bradley open melting point set (2014):
Values joined by “and” are separate entries in the source; they are usually repeats but may differ in a detail not shown here. Equal values may be shown once.

melting point	Structure (SMILES)
179 °C	CCN1CCCC1CNC(=O)c1cc(S(N)(=O)=O)ccc1OC (stereo unspecified) [sulpiride]
91 °C	Brc1ccc(I)cc1 [1-bromo-4-iodobenzene]
137 °C	COc1ncccc1B(O)O [2-methoxypyridine-3-boronic acid]
46 °C	Oc1ccc(F)cc1 [4-fluorophenol]
96 °C	COC(=O)c1ccc([N+](=O)[O-])cc1 [methyl_4-nitrobenzoate]
35 °C	COc1cccc2c1C(=O)C2 [5-methoxybicyclo[4.2.0]octa-1,3,5-trien-7-one]
64 °C	Cc1ccc([N+](=O)[O-])cc1Cl [2-chloro-4-nitrotoluene]
110 °C	O=C(c1ccccc1)c1cc(Br)ccc1O [5-bromo-2-hydroxybenzophenone]
228 °C	CC1(C)C=Nc2ccccc21 [3,3-dimethyl-3H-indole]
31 °C	O=[N+]([O-])c1ccc(Cl)cc1Cl [2,4-dichloro-1-nitrobenzene]
206 °C	COc1ccc2c(C)cc(=O)[nH]c2c1 [7-methoxy-4-methyl-2(1h)-quinolinone]
43 °C	Oc1cccc(I)c1 [m-iodophenol]
2 °C	C(=C/c1ccccc1)/c1ccccc1 [cis-stilbene]
229 °C	CCn1cc(C(=O)O)c(=O)c2ccc(C)nc21 [nalidixic acid]
159 °C	O=C(O)/C=C/c1cccc(Cl)c1 [m-chlorocinnamic_acid__(trans)]
134 °C	COC(=O)c1cc(Br)ccc1NC(C)=O [methyl 2-acetamido-5-bromobenzoate]
-62 °C	CCc1ccc(C)cc1 [4-ethyltoluene]
110 °C	Cc1cc(=O)n(-c2ccccc2)n1C [1,5-Dimethyl-2-phenyl-1,2-dihydro-3H-pyrazol-3-one]

melting point	Structure (SMILES)
-30 °C	CCOc1ccccc1 [phenetole]
34 °C	Cc1cc(F)ccc1O [4-fluoro-2-methylphenol]
-63 °C	Cc1ccc(C(C)(C)C)cc1 [4-tert-butyltoluene]
114 °C	BrC(=C(c1ccccc1)c1ccccc1)c1ccccc1 [bromotriphenylethylene]
-22 °C	CC(C)c1ccc(Br)cc1 [p-bromocumene]
177 °C	NC(=O)Cc1cccc2ccccc12 [1-naphthylacetamide]
212 °C	CNC[C@H](O)c1ccc(O)c(O)c1 [Epinephrine]
69 °C	CCCCOC(=O)c1ccc(O)cc1 [N-butyl 4-hydroxybenzoate]
100 °C	CCC(C(=O)NC(=O)NC(C)=O)c1ccccc1 (stereo unspecified) [acetylpheneturide]
136 °C	CCC1(c2ccccc2)NC(=O)N(C)C1=O (stereo unspecified) [mephenytoin]
100 °C	CCC(C(=O)NC(=O)NC(C)=O)c1ccccc1 (stereo unspecified) [1-Acetyl-3-(2-phenylbutyryl)urea]
124 °C	COC(=O)c1ccccc1S(N)(=O)=O [2-(methoxycarbonyl)benzenesulfonamide]
44 °C	COC1OC(=O)c2ccccc21 (stereo unspecified) [3-methoxy-2-benzofuran-1(3H)-one]
240 °C	O=Cc1cc(B(O)O)ccc1F [4-fluoro-3-formylbenzeneboronic acid]
7 °C	Brc1ccccc1Br [o-dibromobenzene]
47 °C	CC(C)(C)OC(=O)N1CCc2ccccc21 [1-boc-indoline]
22 °C	CCCc1ccc(O)cc1 [4-propylphenol]

More lines, now with the values behind:

Structure (SMILES)	melting point
N#CCc1c[nH]cn1 [(4-imidazolyl)acetonitrile]	137 °C
C=C(CC(=O)O)C(=O)O [itaconic acid]	167 °C
CCCCCCN [1-hexylamine]	-19 °C
COC(=O)c1sc(Br)c(Br)c1O [methyl 4,5-dibromo-3-hydroxythiophene-2-carboxylate]	127 °C
CCCCCO [1-pentanol]	-78 °C
c1ccsc1 [thiophene]	-38 °C (3×) and -38.2 °C and -38.3 °C (2×)
CC(C)CCCC(C)C1CCC2C3CC(O)C4(O)CC(O)CCC4(C)C3CCC12C (stereo unspecified)	238 °C
CC1CCC(C(C)C)C(O)C1 (stereo unspecified) [menthol]	45 °C
COc1ccc(-c2csc(/C(C#N)=N/Nc3cc(C)ccc3C)n2)cc1	156 °C
C=CCCCCCCCC [Dec-1-ene]	-66 °C
CC1(C)CCCC(C)(C)N1 [2,2,6,6-tetramethylpiperidine]	-59 °C
NCC(O)c1ccccc1 (stereo unspecified) [2-Amino-1-phenylethanol]	57 °C
N#Cc1c(N)sc2c1CCCC2 [2-amino-4,5,6,7-tetrahydrobenzo[b]thiophene-3-carbonitrile]	143 °C
CCCCCCCCC(C)=O [2-decanone]	3 °C
CCCC(=O)OCC [ethyl_butyrate]	-93 °C
C#CCCCCCCCCCCCCCC [1-hexadecyne]	15 °C
OCCCCCCO [Hexane-1,6-Diol]	45 °C
COc1cc(C(=O)O)cc(O)c1OC [5-hydroxy-3,4-dimethoxybenzoic acid]	196 °C
CCCCC(=O)O [pentanoic acid]	-34 °C
C[C@H](Cc1ccc(O)c(O)c1)[C@@H](C)Cc1ccc(O)c(O)c1	180 °C
O=[N+]([O-])c1cccc(O)c1 [3-nitrophenol]	97 °C

Structure (SMILES)	melting point
O=C1C2CC3=C(CC=CC3)CC2C(=O)C2CC3=C(CC=CC3)CC12 (stereo unspecified)	227 °C
C=COC(C)=O [Vinyl acetate]	-100 °C
O=C(N[C@H](CO)[C@H](O)c1ccc([N+](=O)[O-])cc1)C(Cl)Cl [chloramphenicol]	151 °C
CCCCOc1ccc(NC(=O)C(F)(F)C(F)(F)C(F)(F)C(F)(F)C(F)(F)C(F)(F)C(F)(F)C(F)(F)F)cc1	137 °C
COC [Dimethyl ether]	-138 °C
O=C(O)c1cc(Cl)cc(Cl)c1 [3,5-dichlorobenzoic acid]	186 °C
c1cc2cccc3c4cccc5cccc(c(c1)c23)c54 [Perylene]	278 °C
CNC(=C[N+](=O)[O-])NCCSCc1ccc(CN(C)C)o1 [ranitidine]	69 °C
O=C(O)CSc1nnc(S)s1 [(5-mercapto-1,3,4-thiadiazol-2-ylthio)acetic acid]	167 °C
N#Cc1cccc(C#N)c1 [isophthalonitrile]	161 °C
Cc1cc(C2(c3cc(C)c(O)c(CN(CC(=O)O)CC(=O)O)c3)OS(=O)(=O)c3ccccc32)cc(CN(CC(=O)O)CC(=O)O)c1O	210 °C
CCNC(=O)C(=O)NCC [N,N'-diethyloxamide]	180 °C
ClC1(Cl)[C@]2(Cl)C(/Cl)=C(/Cl)[C@@]1(Cl)[C@@H]3[C@@H](Cl)[C@@H](Cl)C[C@H]23 [a-Chlordane, cis-Chlordane]	106 °C
CC(=O)Oc1ccccc1C(N)=O [o-acetoxybenzamide]	138 °C
CCC(C)Cl (stereo unspecified) [2-chlorobutane]	-131 °C
COc1ccccc1[N+](=O)[O-] [o-nitroanisole]	10 °C
CC1(C(=O)O)CCCCC1 [1-Methylcyclohexanecarboxylic acid]	38 °C
SCCCS [1,3-propanedithiol]	-79 °C
CCCCCCCCC(=O)CC [3-undecanone]	13 °C
C[Si](C)(Cl)Cl [dichlorodimethylsilane]	-76 °C
